Test results: ChEMBL document CHEMBL1201862, “PubChem BioAssay data set” (2004)
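A five-concentration, 48-hour dose response in 96-well plates underlies each endpoint, interpolated linearly between surrounding concentrations. GI50: concentration for 50% inhibition of growth.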 Calls of active or inactive are those of the source. Cut-off read from the data, not from the text of the source: active = GI50 up to about 1.1 µM and inactive = higher.

How the values were obtained:
Experiment in all cases: NCI anticancer screen, dose series, 48 h
A498 = tested on: A498
A549 = tested on: A549
CAKI-1 = tested on: CAKI-1
EKVX = tested on: EKVX
HCT-15 = tested on: HCT-15
HL-60 = tested on: HL-60
K562 = tested on: K562
LOX IMVI = tested on: LOX IMVI
Malme-3M = tested on: Malme-3M
NCI-H23 = tested on: NCI-H23
PC-3 = tested on: PC-3
RXF 393 = tested on: RXF 393
SF-295 = tested on: SF-295
SK-MEL-28 = tested on: SK-MEL-28
SK-MEL-5 = tested on: SK-MEL-5
SK-OV-3 = tested on: SK-OV-3
SN12C = tested on: SN12C
TK-10 = tested on: TK-10
UO-31 = tested on: UO-31
SR = tested on: SR

Row | Compound | GI50 (A498) | GI50 (A549) | GI50 (CAKI-1) | GI50 (EKVX) | GI50 (HCT-15) [µM] | GI50 (HL-60) | GI50 (K562) | GI50 (LOX IMVI) | GI50 (Malme-3M) | GI50 (NCI-H23) | GI50 (PC-3) | GI50 (RXF 393) | GI50 (SF-295) | GI50 (SK-MEL-28) | GI50 (SK-MEL-5) | GI50 (SK-OV-3) | GI50 (SN12C) | GI50 (TK-10) | GI50 (UO-31) | GI50 (SR)
1 | CC(C)(C)c1cc(C(C)(C)C)c(SS(=O)(=O)O)c(O)c1O | 54.7 µM (inactive) | 9.33 µM (inactive) | 52.2 µM (inactive) | 62.1 µM (inactive) | 48.3 | 65.6 µM (inactive) | 0.246 µM (active) | 35.4 µM (inactive) | 97.5 µM (inactive) | > 100 µM (inactive) | 50.1 µM (inactive) | 28.2 µM (inactive) | 31.8 µM (inactive) | 81.8 µM (inactive) | 34 µM (inactive) | > 100 µM (inactive) | 67 µM (inactive) | > 100 µM (inactive) | > 100 µM (inactive) | –
2 | NNC(=O)c1ccccc1Nc1ccccc1C(=O)NN | – | > 100 µM (inactive) | > 100 µM (inactive) | > 100 µM (inactive) | > 100 | > 100 µM (inactive) | > 100 µM (inactive) | > 100 µM (inactive) | > 100 µM (inactive) | > 100 µM (inactive) | > 100 µM (inactive) | > 100 µM (inactive) | > 100 µM (inactive) | > 100 µM (inactive) | > 100 µM (inactive) | > 100 µM (inactive) | > 100 µM (inactive) | > 100 µM (inactive) | > 100 µM (inactive) | –
3 | CC1(C)CC(=O)c2c(nc3ccc4ccccc4c3c2-c2ccc(NC(=O)CCCCC(=O)Nc3ccc(-c4c5c(nc6ccc7ccccc7c46)CC(C)(C)CC5=O)cc3)cc2)C1 | > 100 µM (inactive) | > 100 µM (inactive) | > 100 µM (inactive) | > 100 µM (inactive) | > 100 | > 100 µM (inactive) | > 100 µM (inactive) | > 100 µM (inactive) | – | > 100 µM (inactive) | > 100 µM (inactive) | – | > 100 µM (inactive) | > 100 µM (inactive) | > 100 µM (inactive) | > 100 µM (inactive) | > 100 µM (inactive) | > 100 µM (inactive) | > 100 µM (inactive) | > 100 µM (inactive)
4 | CC(C)[Si](OC12CCC(CC1O)CC2C(=O)O)(C(C)C)C(C)C (stereo not given) | 15.3 µM (inactive) | 14.5 µM (inactive) | 19.1 µM (inactive) | – | 12.4 | 0.459 µM (active) | 31.6 µM (inactive) | – | – | 15.5 µM (inactive) | 12.5 µM (inactive) | – | 15.7 µM (inactive) | 11.2 µM (inactive) | 18.9 µM (inactive) | 13.9 µM (inactive) | 21.7 µM (inactive) | 3.88 µM (inactive) | 13.2 µM (inactive) | 23.2 µM (inactive)
5 | CCOC(=O)c1c(C(F)(F)F)oc2c1ccc1nc3nonc3nc12 | 16.7 µM (inactive) | 18 µM (inactive) | 14 µM (inactive) | 17.9 µM (inactive) | 17.3 | 4.46 µM (inactive) | 2.67 µM (inactive) | 16.2 µM (inactive) | 17 µM (inactive) | 13.4 µM (inactive) | – | 11.9 µM (inactive) | 27 µM (inactive) | 14.3 µM (inactive) | 13.4 µM (inactive) | 20.1 µM (inactive) | 17.4 µM (inactive) | 19.4 µM (inactive) | 19.2 µM (inactive) | 3.58 µM (inactive)
6 | COC(=O)[C@]1(c2cc3ccccc3n2S(=O)(=O)c2ccccc2)CC2CCC1NC2 (stereo not given in full) | – | 12.6 µM (inactive) | 15.5 µM (inactive) | 14.2 µM (inactive) | 15.6 | 2.85 µM (inactive) | 10.4 µM (inactive) | 15.6 µM (inactive) | 14.9 µM (inactive) | 15.2 µM (inactive) | 12.1 µM (inactive) | 12.2 µM (inactive) | 16.9 µM (inactive) | 16.8 µM (inactive) | 13 µM (inactive) | 16.7 µM (inactive) | 15.7 µM (inactive) | 31.8 µM (inactive) | 10.5 µM (inactive) | < 0.01 µM (active)
7 | C1OCC2S[C@@H]3COCO[C@@H]3C2O1 (stereo not given in full) | > 100 µM (inactive) | > 100 µM (inactive) | > 100 µM (inactive) | > 100 µM (inactive) | > 100 | > 100 µM (inactive) | > 100 µM (inactive) | > 100 µM (inactive) | > 100 µM (inactive) | > 100 µM (inactive) | – | > 100 µM (inactive) | > 100 µM (inactive) | > 100 µM (inactive) | > 100 µM (inactive) | > 100 µM (inactive) | > 100 µM (inactive) | > 100 µM (inactive) | > 100 µM (inactive) | > 100 µM (inactive)
8 | NC1=CN(CCCO)C2=N/C(=C\c3ccco3)C(=O)N12 | > 100 µM (inactive) | > 100 µM (inactive) | > 100 µM (inactive) | > 100 µM (inactive) | > 100 | > 100 µM (inactive) | > 100 µM (inactive) | > 100 µM (inactive) | > 100 µM (inactive) | > 100 µM (inactive) | > 100 µM (inactive) | > 100 µM (inactive) | > 100 µM (inactive) | > 100 µM (inactive) | > 100 µM (inactive) | > 100 µM (inactive) | > 100 µM (inactive) | > 100 µM (inactive) | 94 µM (inactive) | –
9 | CC(C)N(C(=O)C12C3C4C1C1C2C3C41C#N)C(C)C (stereo not given) | > 100 µM (inactive) | > 100 µM (inactive) | > 100 µM (inactive) | > 100 µM (inactive) | > 72.8 | > 41.4 µM (inactive) | > 69.2 µM (inactive) | > 47.1 µM (inactive) | > 100 µM (inactive) | > 100 µM (inactive) | – | > 100 µM (inactive) | > 100 µM (inactive) | > 100 µM (inactive) | > 100 µM (inactive) | > 100 µM (inactive) | > 100 µM (inactive) | > 100 µM (inactive) | > 100 µM (inactive) | 20.2 µM (inactive)
10 | NS(=O)(=O)c1cccc(NC(=S)NC(=O)Nc2ccc(Cl)c(Cl)c2)c1 | 12.7 µM (inactive) | 20.5 µM (inactive) | – | – | 17.3 | – | 16.2 µM (inactive) | 16.7 µM (inactive) | 11.5 µM (inactive) | 15.8 µM (inactive) | 22.4 µM (inactive) | 22.8 µM (inactive) | 22.6 µM (inactive) | 20.4 µM (inactive) | 17.1 µM (inactive) | 21.4 µM (inactive) | 17.7 µM (inactive) | 32.5 µM (inactive) | 16.6 µM (inactive) | –
11 | CC(=O)Nc1ccc(C(=O)NN2C(=O)C(Cl)C2c2ccc(Cl)cc2)cc1 (stereo not given) | – | > 72.4 µM (inactive) | – | > 100 µM (inactive) | > 100 | > 100 µM (inactive) | > 100 µM (inactive) | – | > 42.9 µM (inactive) | 44.8 µM (inactive) | > 100 µM (inactive) | – | 20.6 µM (inactive) | 52.5 µM (inactive) | > 100 µM (inactive) | 25.4 µM (inactive) | 39.6 µM (inactive) | > 100 µM (inactive) | > 100 µM (inactive) | > 100 µM (inactive)
12 | Brc1cccc[n+]1-c1ccc2cc(-[n+]3ccccc3Br)ccc2c1 | > 100 µM (inactive) | 38.9 µM (inactive) | > 100 µM (inactive) | 47.6 µM (inactive) | 32.5 | 28.6 µM (inactive) | 59.2 µM (inactive) | 16.3 µM (inactive) | 23.1 µM (inactive) | > 100 µM (inactive) | > 100 µM (inactive) | 32 µM (inactive) | 53.3 µM (inactive) | > 100 µM (inactive) | 77.3 µM (inactive) | 3.01 µM (inactive) | 42.4 µM (inactive) | 18.3 µM (inactive) | 18.1 µM (inactive) | –
13 | CC(=O)c1c(O)c(C)c(O)c(Cc2c(O)c3c(c(C(=O)/C=C/c4ccccc4)c2O)OC(C)(C)C=C3)c1O [ROTTLERIN] | 1.95 µM (inactive) | 0.986 µM (active) | 2.91 µM (inactive) | 2.68 µM (inactive) | 2.52 | 2.64 µM (inactive) | 1.07 µM (active) | 2.86 µM (inactive) | 2.84 µM (inactive) | 2.37 µM (inactive) | 1.11 µM (active) | – | 2.85 µM (inactive) | 2.86 µM (inactive) | 1.87 µM (inactive) | 4.04 µM (inactive) | 2.21 µM (inactive) | 2.98 µM (inactive) | 2.26 µM (inactive) | –
14 | Cl.O=C(O)c1cccnc1 | – | > 100 µM (inactive) | > 100 µM (inactive) | > 100 µM (inactive) | > 100 | > 100 µM (inactive) | > 100 µM (inactive) | > 100 µM (inactive) | > 100 µM (inactive) | > 100 µM (inactive) | > 100 µM (inactive) | – | > 100 µM (inactive) | > 100 µM (inactive) | > 100 µM (inactive) | – | > 100 µM (inactive) | > 100 µM (inactive) | > 100 µM (inactive) | > 100 µM (inactive)
15 | CC1=CC(=O)/C(=C/NC(=S)NCCc2ccccc2)C(=O)O1 | – | > 100 µM (inactive) | > 100 µM (inactive) | > 100 µM (inactive) | > 100 | > 100 µM (inactive) | – | 30.1 µM (inactive) | – | > 100 µM (inactive) | > 100 µM (inactive) | – | > 100 µM (inactive) | > 100 µM (inactive) | > 100 µM (inactive) | > 100 µM (inactive) | > 100 µM (inactive) | 6.44 µM (inactive) | > 100 µM (inactive) | –
16 | O=C(/C=C/c1c(O)nc2ccccc2c1O)CC(=O)C(=O)Nc1cccc(O)c1 | > 100 µM (inactive) | > 100 µM (inactive) | > 100 µM (inactive) | > 100 µM (inactive) | > 100 | > 100 µM (inactive) | > 100 µM (inactive) | > 100 µM (inactive) | > 100 µM (inactive) | > 100 µM (inactive) | > 100 µM (inactive) | – | > 100 µM (inactive) | > 100 µM (inactive) | > 100 µM (inactive) | > 100 µM (inactive) | > 100 µM (inactive) | > 100 µM (inactive) | > 100 µM (inactive) | –
